15 compounds from patent US20230124361A1, “SMALL MOLECULE STING ANTAGONISTS” (CURADEV PHARMA PVT. LTD., priority 2020, published 2023) can be followed below.

Where only a bound is given, the exact number is not on record here.

The target of this assay is T1, STING (Homo sapiens, UniProt Q86WV6, G230A/H232R/R293Q/R71H).
T1 construct: host or cells: THP1-Dual cells (human THP-1 monocyte line with Lucia/SEAP reporters)
T1 sequence (Q86WV6 whole entry R71H/G230A/H232R/R293Q): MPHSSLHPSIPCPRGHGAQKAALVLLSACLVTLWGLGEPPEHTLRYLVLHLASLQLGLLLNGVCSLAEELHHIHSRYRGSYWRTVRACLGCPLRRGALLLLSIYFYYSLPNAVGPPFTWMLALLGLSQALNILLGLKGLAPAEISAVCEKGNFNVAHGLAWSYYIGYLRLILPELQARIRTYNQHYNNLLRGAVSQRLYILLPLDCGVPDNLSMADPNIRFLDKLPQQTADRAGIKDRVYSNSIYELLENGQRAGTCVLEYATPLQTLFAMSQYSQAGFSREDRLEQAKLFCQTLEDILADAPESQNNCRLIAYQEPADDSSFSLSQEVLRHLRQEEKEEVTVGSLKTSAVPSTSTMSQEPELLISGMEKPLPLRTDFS
Put plainly: Reporter gene expression assay in THP1-Dual cells (IRF pathway Lucia luciferase, 2',3'-cGAMP stimulation). The class given is cell-based. The following applies: 10 min preincubation, 5 μM 2',3'-cGAMP, 20 hr, IRF reporter QUANTI-Luc, read-out: THP-1 (HAQ) Activity. On the procedure:
Reporter Gene Expression Assay in THP-1 Cells
THP1-Dual™ cells (Invivogen) were derived from the human THP-1 monocyte cell line by stable integration of two inducible reporter constructs. As a result, THP1-Dual™ cells allow the simultaneous study of the IRF pathway, by assessing the activity of a secreted luciferase (Lucia) and the NF-κB pathway, by monitoring the activity of secreted SEAP. 5×10^4 THP1-Dual™ cells were seeded in 384-well plates in growth medium and preincubated with novel compounds for 10 minutes followed by stimulation with 5 μM 2′,3′-cGAMP. After 20 hr of stimulation the supernatant was removed and the IRF pathway reporter protein was readily measured in the cell culture supernatant using QUANTI-Luc™ (Invivogen), a luciferase detection reagent on a Spectramax i3X luminometer.
In the tables below, IC50 value ranges for exemplary compounds are given. The IC50 ranges are indicated as “A” for values less than or equal to 1 μM, “B” for values greater than 1 μM and less than or equal to 10 μM, and “C” for values greater than 10 μM.
A general note: A reporter such as luciferase makes a cellular process visible.
Take `O=C(Nc1ccc2c(c1)OCC(=O)N2Cc1ccccc1)NC1CCC(c2ccccc2)CC1` (mixture of isomers) [Example 137, 1-(4-benzyl-3-oxo-3,4-dihydro-2H-benzo[b][1, 4]oxazin-7-yl)-3-(4-phenyl-cyclohexyl)urea]: the IC50 lay within 1 to 10 µM.
The same measure for `O=C(Nc1ccc2c(c1)N(Cc1ccccc1)C(=O)CS2)Nc1ccc2cc[nH]c2c1` [Example 1, 1-(4-Benzyl-3-oxo-3,4-dihydro-2H-benzo[b][1,4]thiazin-6-yl)-3-(1H-indol-6-yl)urea]: 1 to 10 µM; for `O=C(Nc1ccccc1)Nc1ccc2c(c1)N(Cc1ccccc1)C(=O)CS2` [Example 2, 1-(4-benzyl-3-oxo-3,4-dihydro-2H-benzo[b][1, 4]thiazin-6-yl)-3-phenylurea]: 1 to 10 µM.
The same measure for `O=C(Nc1ccc(F)cc1)Nc1ccc2c(c1)N(Cc1ccccc1)C(=O)CS2` [Example 3, 1-(4-benzyl-3-oxo-3,4-dihydro-2H-benzo[b][i, 4]thiazin-6-yl)-3-(4-fluorophenyl) urea]: 1 to 10 µM; for `O=C(Nc1cccnc1)Nc1ccc2c(c1)N(Cc1ccccc1)C(=O)CS2` [Example 4, 1-(4-benzyl-3-oxo-3,4-dihydro-2H-benzo[b][1, 4]thiazin-6-yl)-3-(pyridin-3-yl)urea]: 1 to 10 µM.
Consider `O=C(Nc1ccncc1)Nc1ccc2c(c1)N(Cc1ccccc1)C(=O)CS2` [Example 6, 1-(4-benzyl-3-oxo-3,4-dihydro-2H-benzo[b][1, 4]thiazin-6-yl)-3-(pyridin-4-yl)urea], for which the IC50 fell in the range of 1 to 10 µM.
The same measure for `O=C(Nc1ccc2c(c1)N(Cc1ccccc1)C(=O)CS2)Nc1ccc2[nH]ccc2c1` [Example 9, 1-(4-benzyl-3-oxo-3,4-dihydro-2H-benzo[b][1, 4]thiazin-6-yl)-3-(1H-indol-5-yl)urea]: 1 to 10 µM.
For the compound `N#Cc1ccc(CNC(=O)Nc2ccc3c(c2)N(Cc2ccccc2)C(=O)CS3)cc1` [Example 12, 1-(4-benzyl-3-oxo-3,4-dihydro-2H-benzo[b][1, 4]thiazin-6-yl)-3-(4-cyanobenzyl) urea], the IC50 is above 10 µM.
As to `O=C(Nc1ccc(F)cc1)Nc1ccc2c(c1)N(Cc1cccnc1)C(=O)CS2` [Example 16, l-(4-fluorophenyl)-3-(3-oxo-4-(pyridin-3-ylmethyl)-3,4-dihydro-2H-benzo[b] [1,4]thiazin-6-yl)urea], the IC50 is above 10 µM.
For `O=C(Nc1ccc(F)cc1)Nc1ccc2c(c1)N(Cc1ccncc1)C(=O)CS2` [Example 17, l-(4-fluorophenyl)-3-(3-oxo-4-(pyridin-4-ylmethyl)-3,4-dihydro-2H-benzo[b][1, 4]thiazin-6-yl)urea] the value was above 10 µM.
The same measure for `O=C(Nc1ccc2c(c1)N(Cc1ccccc1)C(=O)CS2)Nc1c[nH]c2ccccc12` [Example 18, 1-(4-benzyl-3-oxo-3,4-dihydro-2H-benzo[b][1, 4]thiazin-6-yl)-3-(1H-indol-3-yl)urea]: at most 1 µM; for `O=C(Nc1ccc2c(c1)N(Cc1ccccc1)C(=O)CS2)Nc1cccc2cc[nH]c12` [Example 19, 1-(4-benzyl-3-oxo-3,4-dihydro-2H-benzo[b][1, 4]thiazin-6-yl)-3-(1H-indol-7-yl)urea]: 1 to 10 µM.
Consider `O=C(Nc1ccc2c(c1)OCCO2)Nc1ccc2c(c1)N(Cc1ccccc1)C(=O)CS2` [Example 23, 1-(4-benzyl-3-oxo-3,4-dihydro-2H-benzo[b] [1,4]thiazin-6-yl)-3-(2,3-dihydrobenzo [b][1,4]dioxin-6-yl)urea], for which the IC50 lay in the range of 1 to 10 µM.
The same measure for `O=C(Nc1ccc2c(c1)N(Cc1noc3ccccc13)C(=O)CS2)Nc1ccc2cc[nH]c2c1` [Example 24, 1-(4-(benzo[d]isoxazol-3-ylmethyl)-3-oxo-3,4-dihydro-2H-benzo [b][1,4]thiazin-6-yl)-3-(1H-indol-6-yl)urea]: 1 to 10 µM; for `Nc1cccc(NC(=O)Nc2ccc3c(c2)N(Cc2ccccc2)C(=O)CS3)c1` [Example 25, 1-(3-aminophenyl)-3-(4-benzyl-3-oxo-3,4-dihydro-2H-benzo [b][1,4]thiazin-6-yl)urea]: 1 to 10 µM.
